Test [1] addresses Aldo-keto reductase family 1 member B1 (Rattus norvegicus, UniProt P07943). The test can be described thus: Compound was tested for 50% inhibitory concentration that was required for irreversible inhibition of aldose reductase.
Test [2] deals with Aldo-keto reductase family 1 member B1 (Rattus norvegicus) (UniProt P07943). The experiment in a line: Compound was tested for % inhibition against RLAR (aldose reductase) at a concentration of 10 micro M.
Test [3] shares this target. The experiment in a line: Compound was tested for % inhibition against RLAR (aldose reductase)at a concentration of 10 uM, pre-incubated with 100 uM sorbinil.

Turning to `COC(=O)CN1C(=O)c2cccc3cc(N=C=S)cc(c23)C1=O`, in test [1], it took 14 µM to reach half-maximal inhibition (IC50).

As for `O=C(O)CN1C(=O)c2cccc3cc(N=C=S)cc(c23)C1=O`, it took 0.3 µM to reach half-maximal inhibition in test [1] (IC50). Besides, the inhibition in test [2] is 57%; in test [3] it was 5%.

As for `S=C=Nc1ccccc1`, the values for the inhibition in test [2] and in test [3] were 34% and 5%, respectively.

`[N-]=[N+]=Nc1cc2c3c(cccc3c1)C(=O)N(CC(=O)O)C2=O`: in test [1], the IC50 was found to be 3.6 µM.

`COC(=O)CN1C(=O)c2cccc3cc(N=[N+]=[N-])cc(c23)C1=O`: the IC50 in test [1] stood at 38 µM.
